Measured values published in patent US6355799B1, “Substituted benzene compounds, process for their preparation, and herbicidal and defoliant compositions containing them” (ISK Americas Incorporated, priority 1997, dated 2002).

Tests used:
Type in all cases: in vivo
[1] = system: ivyleaf morningglory (Ipomoea hederacea, IPOHE); test: Post-emerge test, greenhouse herbicide activity screening; conditions: rating scale 0-100 (0 no damage, 100 complete death), 14 days after application
How it was run: (§1)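 Fourteen days after spraying, crop and weed injury was graded visually from 0, no effect, to 100, every plant dead. Test substances were dissolved in acetone and applied at 15–1000 g ai/ha with a flat-fan nozzle. Application was either pre-emergence, one day after sowing, or post-emergence at the 2–3 leaf stage.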

[2] = system: large crabgrass (Digitaria sanguinalis, DIGSA); test: as above; conditions: rating scale 0-100 (0 no damage, 100 complete death), 14 days after application
How it was run: as §1

[3] = system: lambsquarters (Chenopodium album, CHEAL); test: as above; conditions: rating scale 0-100 (0 no damage, 100 complete death), 14 days after application
How it was run: as §1

[4] = system: barnyardgrass (Echinochloa crus-galli, ECHCG); test: as above; conditions: rating scale 0-100 (0 no damage, 100 complete death), 14 days after application
How it was run: as §1

[5] = system: velvetleaf (Abutilon theophrasti, ABUTH); test: as above; conditions: rating scale 0-100 (0 no damage, 100 complete death), 14 days after application
How it was run: as §1

[6] = system: green foxtail (Setaria viridis, SETVI); test: as above; conditions: rating scale 0-100 (0 no damage, 100 complete death), 14 days after application
How it was run: as §1

[7] = system: johnsongrass (Sorghum halepense, SORHA); test: as above; conditions: rating scale 0-100 (0 no damage, 100 complete death), 14 days after application
How it was run: as §1

[8] = system: sicklepod (Cassia obtusifolia, CASOB); test: as above; conditions: rating scale 0-100 (0 no damage, 100 complete death), 14 days after application
How it was run: as §1

[9] = system: redroot pigweed (Amaranthus retroflexus, AMARE); test: as above; conditions: rating scale 0-100 (0 no damage, 100 complete death), 14 days after application
How it was run: as §1

[10] = system: field corn (Zea mays L., var. Dekalb 535, CORN); test: Post-emerge test, crop safety; conditions: rating scale 0-100 (0 no damage, 100 complete death), 14 days after application
How it was run: (§2)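 Rating: 0–100 visual injury, 14 DAA. Application: acetone, 187 l/ha, 15–1000 g ai/ha, flat-fan track sprayer with nozzle 40–45 cm above soil or canopy. Post-emerge runs used 0.25% v/v surfactant on 2–3 leaf plants.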

[11] = system: upland rice (Oryza sp., var. Tebonnet, RICE); test: Post-emerge test, crop safety; conditions: rating scale 0-100 (0 no damage, 100 complete death), 14 days after application
How it was run: as §2

[12] = system: field corn (Zea mays L., var. Dekalb 535, CORN); test: Pre-emerge test, crop safety; conditions: rating scale 0-100, 14 days after application
How it was run: (§3)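 Plants grown in 10 cm pots of sandy loam mix received acetone-dissolved compounds through a moving flat-fan nozzle. Doses ranged from 15 to 1000 g ai/ha. Pre-emerge pots were seeded one day earlier, post-emerge pots 8–21 days earlier. Fourteen days on, each pot was graded 0–100 for damage.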

[13] = system: upland rice (Oryza sp., var. Tebonnet, RICE); test: Pre-emerge test, crop safety; conditions: rating scale 0-100, 14 days after application
How it was run: as §3

[14] = system: ivyleaf morningglory (Ipomoea hederacea, IPOHE); test: Pre-emerge test, greenhouse herbicide activity screening; conditions: rating scale 0-100, 14 days after application
How it was run: (§4)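 Compounds in acetone were track-sprayed at 15–1000 g ai/ha: pre-emergence onto soil sown the previous day, then top-watered to incorporate and later bottom-watered; post-emergence onto 2–3 leaf plants with 0.25% v/v surfactant, bottom-watered only. Ratings on a 0–100 phytotoxicity scale were taken at day 14.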

[15] = system: large crabgrass (Digitaria sanguinalis, DIGSA); test: as above; conditions: rating scale 0-100, 14 days after application
How it was run: as §4

[16] = system: lambsquarters (Chenopodium album, CHEAL); test: as above; conditions: rating scale 0-100, 14 days after application
How it was run: as §4

[17] = system: barnyardgrass (Echinochloa crus-galli, ECHCG); test: as above; conditions: rating scale 0-100, 14 days after application
How it was run: as §4

[18] = system: velvetleaf (Abutilon theophrasti, ABUTH); test: as above; conditions: rating scale 0-100, 14 days after application
How it was run: as §4

[19] = system: green foxtail (Setaria viridis, SETVI); test: as above; conditions: rating scale 0-100, 14 days after application
How it was run: as §4

[20] = system: common ragweed (Ambrosia artemisizfolia L., AMBEL); test: as above; conditions: rating scale 0-100, 14 days after application
How it was run: as §4

[21] = system: johnsongrass (Sorghum halepense, SORHA); test: as above; conditions: rating scale 0-100, 14 days after application
How it was run: as §4

[22] = system: sicklepod (Cassia obtusifolia, CASOB); test: as above; conditions: rating scale 0-100, 14 days after application
How it was run: as §4

[23] = system: redroot pigweed (Amaranthus retroflexus, AMARE); test: as above; conditions: rating scale 0-100, 14 days after application
How it was run: as §3

## CCOC(=O)CCc1c(OC)c(Cl)cc(F)c1-n1c(=O)cc(C(F)(F)F)n(C)c1=O [14-1]
[1]; Rate 63 g ai/ha
  Post-emerge Herbicidal Activity, phytotoxicity rating IPOHE: 85
[1]; Rate 250 g ai/ha
  Post-emerge Herbicidal Activity, phytotoxicity rating IPOHE: 100
[2]; Rate 63 g ai/ha
  Post-emerge Herbicidal Activity, phytotoxicity rating DIGSA: 80
[2]; Rate 250 g ai/ha
  Post-emerge Herbicidal Activity, phytotoxicity rating DIGSA: 95
[3]; Rate 63 g ai/ha
  Post-emerge Herbicidal Activity, phytotoxicity rating CHEAL: 80
[3]; Rate 250 g ai/ha
  Post-emerge Herbicidal Activity, phytotoxicity rating CHEAL: 98
[4]; Rate 63 g ai/ha
  Post-emerge Herbicidal Activity, phytotoxicity rating ECHCG: 85
[4]; Rate 250 g ai/ha
  Post-emerge Herbicidal Activity, phytotoxicity rating ECHCG: 95
[5]; Rate 63 g ai/ha
  Post-emerge Herbicidal Activity, phytotoxicity rating ABUTH: 85
[5]; Rate 250 g ai/ha
  Post-emerge Herbicidal Activity, phytotoxicity rating ABUTH: 98
[6]; Rate 63 g ai/ha
  Post-emerge Herbicidal Activity, phytotoxicity rating SETVI: 40
[6]; Rate 250 g ai/ha
  Post-emerge Herbicidal Activity, phytotoxicity rating SETVI: 70
[7]; Rate 63 g ai/ha
  Post-emerge Herbicidal Activity, phytotoxicity rating SORHA: 25
[7]; Rate 250 g ai/ha
  Post-emerge Herbicidal Activity, phytotoxicity rating SORHA: 75
[8]; Rate 63 g ai/ha
  Post-emerge Herbicidal Activity, phytotoxicity rating CASOB: 55
[8]; Rate 250 g ai/ha
  Post-emerge Herbicidal Activity, phytotoxicity rating CASOB: 70
[9]; Rate 63 g ai/ha
  Post-emerge Herbicidal Activity, phytotoxicity rating AMARE: 100
[9]; Rate 250 g ai/ha
  Post-emerge Herbicidal Activity, phytotoxicity rating AMARE: 100
[10]; Rate 63 g ai/ha
  Post-emerge phytotoxicity rating CORN (crop damage): 85
[10]; Rate 250 g ai/ha
  Post-emerge phytotoxicity rating CORN (crop damage): 100
[11]; Rate 63 g ai/ha
  Post-emerge phytotoxicity rating RICE (crop damage): 40
[11]; Rate 250 g ai/ha
  Post-emerge phytotoxicity rating RICE (crop damage): 80
[12]; 63 g ai/ha
  Pre-emerge phytotoxicity rating, crop damage CORN: 0
[12]; 250 g ai/ha
  Pre-emerge phytotoxicity rating, crop damage CORN: 10
[13]; 63 g ai/ha
  Pre-emerge phytotoxicity rating, crop damage RICE: 15
[13]; 250 g ai/ha
  Pre-emerge phytotoxicity rating, crop damage RICE: 45
[14]; 63 g ai/ha
  Pre-emerge herbicidal activity, phytotoxicity rating IPOHE: 30
[14]; 250 g ai/ha
  Pre-emerge herbicidal activity, phytotoxicity rating IPOHE: 75
[15]; 63 g ai/ha
  Pre-emerge herbicidal activity, phytotoxicity rating DIGSA: 40
[15]; 250 g ai/ha
  Pre-emerge herbicidal activity, phytotoxicity rating DIGSA: 85
[16]; 63 g ai/ha
  Pre-emerge herbicidal activity, phytotoxicity rating CHEAL: 98
[16]; 250 g ai/ha
  Pre-emerge herbicidal activity, phytotoxicity rating CHEAL: 100
[17]; 63 g ai/ha
  Pre-emerge herbicidal activity, phytotoxicity rating ECHCG: 15
[17]; 250 g ai/ha
  Pre-emerge herbicidal activity, phytotoxicity rating ECHCG: 30
[18]; 63 g ai/ha
  Pre-emerge herbicidal activity, phytotoxicity rating ABUTH: 75
[18]; 250 g ai/ha
  Pre-emerge herbicidal activity, phytotoxicity rating ABUTH: 100
[19]; 63 g ai/ha
  Pre-emerge herbicidal activity, phytotoxicity rating SETVI: 15
[19]; 250 g ai/ha
  Pre-emerge herbicidal activity, phytotoxicity rating SETVI: 55
[20]; 63 g ai/ha
  Pre-emerge herbicidal activity, phytotoxicity rating AMBEL: 0
[20]; 250 g ai/ha
  Pre-emerge herbicidal activity, phytotoxicity rating AMBEL: 0
[21]; 63 g ai/ha
  Pre-emerge herbicidal activity, phytotoxicity rating SORHA: 0
[21]; 250 g ai/ha
  Pre-emerge herbicidal activity, phytotoxicity rating SORHA: 90
[22]; 63 g ai/ha
  Pre-emerge herbicidal activity, phytotoxicity rating CASOB: 0
[22]; 250 g ai/ha
  Pre-emerge herbicidal activity, phytotoxicity rating CASOB: 0
[23]; 63 g ai/ha
  Pre-emerge herbicidal activity, phytotoxicity rating AMARE: 100
[23]; 250 g ai/ha
  Pre-emerge herbicidal activity, phytotoxicity rating AMARE: 100

## COC(=O)C(Cl)Cc1c(OC)c(Cl)cc(F)c1-n1c(=O)cc(C(F)(F)F)n(C)c1=O (centres unmarked) [14-3]
[1]; Rate 63 g ai/ha
  Post-emerge Herbicidal Activity, phytotoxicity rating IPOHE: 50
[1]; Rate 250 g ai/ha
  Post-emerge Herbicidal Activity, phytotoxicity rating IPOHE: 100
[2]; Rate 63 g ai/ha
  Post-emerge Herbicidal Activity, phytotoxicity rating DIGSA: 99
[2]; Rate 250 g ai/ha
  Post-emerge Herbicidal Activity, phytotoxicity rating DIGSA: 100
[3]; Rate 63 g ai/ha
  Post-emerge Herbicidal Activity, phytotoxicity rating CHEAL: 90
[3]; Rate 250 g ai/ha
  Post-emerge Herbicidal Activity, phytotoxicity rating CHEAL: 100
[4]; Rate 63 g ai/ha
  Post-emerge Herbicidal Activity, phytotoxicity rating ECHCG: 99
[4]; Rate 250 g ai/ha
  Post-emerge Herbicidal Activity, phytotoxicity rating ECHCG: 100
[5]; Rate 63 g ai/ha
  Post-emerge Herbicidal Activity, phytotoxicity rating ABUTH: 100
[5]; Rate 250 g ai/ha
  Post-emerge Herbicidal Activity, phytotoxicity rating ABUTH: 100
[6]; Rate 63 g ai/ha
  Post-emerge Herbicidal Activity, phytotoxicity rating SETVI: 30
[6]; Rate 250 g ai/ha
  Post-emerge Herbicidal Activity, phytotoxicity rating SETVI: 70
[7]; Rate 63 g ai/ha
  Post-emerge Herbicidal Activity, phytotoxicity rating SORHA: 80
[7]; Rate 250 g ai/ha
  Post-emerge Herbicidal Activity, phytotoxicity rating SORHA: 70
[8]; Rate 63 g ai/ha
  Post-emerge Herbicidal Activity, phytotoxicity rating CASOB: 10
[8]; Rate 250 g ai/ha
  Post-emerge Herbicidal Activity, phytotoxicity rating CASOB: 75
[9]; Rate 63 g ai/ha
  Post-emerge Herbicidal Activity, phytotoxicity rating AMARE: 95
[9]; Rate 250 g ai/ha
  Post-emerge Herbicidal Activity, phytotoxicity rating AMARE: 100
[10]; Rate 63 g ai/ha
  Post-emerge phytotoxicity rating CORN (crop damage): 100
[10]; Rate 250 g ai/ha
  Post-emerge phytotoxicity rating CORN (crop damage): 100
[11]; Rate 63 g ai/ha
  Post-emerge phytotoxicity rating RICE (crop damage): 5
[11]; Rate 250 g ai/ha
  Post-emerge phytotoxicity rating RICE (crop damage): 80
[12]; 63 g ai/ha
  Pre-emerge phytotoxicity rating, crop damage CORN: 0
[12]; 250 g ai/ha
  Pre-emerge phytotoxicity rating, crop damage CORN: 90
[13]; 63 g ai/ha
  Pre-emerge phytotoxicity rating, crop damage RICE: 0
[13]; 250 g ai/ha
  Pre-emerge phytotoxicity rating, crop damage RICE: 50
[14]; 63 g ai/ha
  Pre-emerge herbicidal activity, phytotoxicity rating IPOHE: 0
[14]; 250 g ai/ha
  Pre-emerge herbicidal activity, phytotoxicity rating IPOHE: 50
[15]; 63 g ai/ha
  Pre-emerge herbicidal activity, phytotoxicity rating DIGSA: 30
[15]; 250 g ai/ha
  Pre-emerge herbicidal activity, phytotoxicity rating DIGSA: 90
[16]; 63 g ai/ha
  Pre-emerge herbicidal activity, phytotoxicity rating CHEAL: 100
[16]; 250 g ai/ha
  Pre-emerge herbicidal activity, phytotoxicity rating CHEAL: 100
[17]; 63 g ai/ha
  Pre-emerge herbicidal activity, phytotoxicity rating ECHCG: 0
[17]; 250 g ai/ha
  Pre-emerge herbicidal activity, phytotoxicity rating ECHCG: 40
[18]; 63 g ai/ha
  Pre-emerge herbicidal activity, phytotoxicity rating ABUTH: 100
[18]; 250 g ai/ha
  Pre-emerge herbicidal activity, phytotoxicity rating ABUTH: 100
[19]; 63 g ai/ha
  Pre-emerge herbicidal activity, phytotoxicity rating SETVI: 40
[19]; 250 g ai/ha
  Pre-emerge herbicidal activity, phytotoxicity rating SETVI: 80
[20]; 63 g ai/ha
  Pre-emerge herbicidal activity, phytotoxicity rating AMBEL: 0
[20]; 250 g ai/ha
  Pre-emerge herbicidal activity, phytotoxicity rating AMBEL: 65
[21]; 63 g ai/ha
  Pre-emerge herbicidal activity, phytotoxicity rating SORHA: 0
[21]; 250 g ai/ha
  Pre-emerge herbicidal activity, phytotoxicity rating SORHA: 60
[22]; 63 g ai/ha
  Pre-emerge herbicidal activity, phytotoxicity rating CASOB: 20
[22]; 250 g ai/ha
  Pre-emerge herbicidal activity, phytotoxicity rating CASOB: 80
[23]; 63 g ai/ha
  Pre-emerge herbicidal activity, phytotoxicity rating AMARE: 100
[23]; 250 g ai/ha
  Pre-emerge herbicidal activity, phytotoxicity rating AMARE: 100
